Measured values taken from patent US20230093975A1, “I[…] FOR TREATING CENTRAL NERVOUS SYSTEM DISORDERS” (priority 2021, published 2023).
Where two headings read alike, the source gives them in different places.

Tests used:
[1] = oral rivastigmine, cited from earlier work
[2] = Oral rivastigmine pharmacokinetics and estimated CSF uptake (Exelon label); assay type: in vivo; conditions: plasma volume 2750 mL, CSF volume 150 mL
Experimental: Drug coating and formulation development. The absolute bioavailability of oral rivastigmine is approximately 40%, and the AUC1-12 h cerebral spinal fluid (CSF)/plasma ratio is about 40% (Novartis Exelon® Capsules and Oral Solution Prescribing Information). An estimated 0.87% of the rivastigmine oral dose is absorbed and distributed into the CSF. Thus, the daily CSF uptake of this drug is estimated to be between 26-105 μg. As a starting point for the formulation development, we will first target to formulate a matrix loaded with rivastigmine which will be released over 30 days in a near linear manner. Bilateral administration of the rivastigmine matrix would result in approximately 21-107 μg rivastigmine delivered to CSF/day, assuming a CSF bioavailability between 10-50%.
For oral administration, delivery, an absolute bioavailability of Rivastigmine is about 40% and a mean AUC (area under the curve) 1-12 hr CSF/Plasma is about 40% (Exelon Label). The daily doses delivered to CSF are 26 μg/day, 52 μg/day, 79 μg/day, and 105 μg/day for the oral doses, equating to 1.5 mg BID, 3 mg BID, 4.5 mg BID, and 6 mg BID, respectively. For this estimation, a plasma volume of 2750 mL and a CSF volume of 150 mL are used.

**Q.** Which “AUC1-12 h CSF/plasma ratio” value [1] does the source give for `CCN(C)C(=O)Oc1cccc([C@H](C)N(C)C)c1` [Rivastigmine] here?
**A.** The value was “about 40%”.

**Q.** And the “AUC1-12 h CSF/plasma ratio” value ([1]; listed as rivastigmine)?
**A.** The value was “approximately 40%”.

**Q.** What about the “share of oral dose absorbed and distributed into the CSF” value [2] of the same compound?
**A.** Its value is 0.87%.
